Source: patent US20260285850A1, “SUBSTITUTED OXAZOLIDINONES AND IMIDAZOLINONES AS HERBICIDES” (FMC CORPORATION, priority 2023, published 2026)

How the values were obtained:
Type in all cases: in vivo
[1] = test system: wheat (Triticum aestivum); experiment: Test A preemergence soil spray, visual injury rating 0-100; settings: 10 days, 0 = no effect, 100 = complete control; for Wheat plant response rating (0-100): 31 g ai/ha; for Wheat plant response rating (0 to 100 scale): 125 g ai/ha
In short: (§1)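 Plants were grown in a loam soil-sand blend and treated with test chemical in a non-phytotoxic solvent mixture containing surfactant, either sprayed on soil preemergence or applied postemergence to 2-10 cm plants. After 10 days in a greenhouse, injury was scored visually against untreated controls, 0 meaning no effect and 100 complete control.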

[2] = test system: ragweed (common ragweed, Ambrosia artemisiifolia); experiment: as above; settings: 10 days, 0 = no effect, 100 = complete control; for Ragweed plant response rating (0-100): 31 g ai/ha; for Ragweed plant response rating (0 to 100 scale): 125 g ai/ha
In short: as §1

[3] = test system: soybean (Glycine max); experiment: as above; settings: 10 days, 0 = no effect, 100 = complete control; for Soybean plant response rating (0-100): 31 g ai/ha; for Soybean plant response rating (0 to 100 scale): 125 g ai/ha
In short: as §1

[4] = test system: ryegrass, Italian (italian ryegrass, Lolium multiflorum); experiment: as above; settings: 10 days, 0 = no effect, 100 = complete control; for Ryegrass, Italian plant response rating (0-100): 31 g ai/ha; for Ryegrass, Italian plant response rating (0 to 100 scale): 125 g ai/ha
In short: as §1

[5] = test system: barnyardgrass (Echinochloa crus-galli); experiment: as above; settings: 10 days, 0 = no effect, 100 = complete control; for Barnyardgrass plant response rating (0-100): 31 g ai/ha; for Barnyardgrass plant response rating (0 to 100 scale): 125 g ai/ha
In short: as §1

[6] = test system: corn (Zea mays); experiment: as above; settings: 10 days, 0 = no effect, 100 = complete control; for Corn plant response rating (0-100): 31 g ai/ha; for Corn plant response rating (0 to 100 scale): 125 g ai/ha
In short: as §1

[7] = test system: kochia (Bassia scoparia); experiment: as above; settings: 10 days, 0 = no effect, 100 = complete control; for Kochia plant response rating (0-100): 31 g ai/ha; for Kochia plant response rating (0 to 100 scale): 125 g ai/ha
In short: as §1

[8] = test system: palmer (palmer amaranth, palmer pigweed, Amaranthus palmeri); experiment: as above; settings: 10 days, 0 = no effect, 100 = complete control; for Amaranth, Palmer plant response rating (0-100): 31 g ai/ha; for Amaranth, Palmer plant response rating (0 to 100 scale): 125 g ai/ha
In short: as §1

[9] = test system: blackgrass (Alopecurus myosuroides); experiment: as above; settings: 10 days, 0 = no effect, 100 = complete control; for Blackgrass plant response rating (0-100): 31 g ai/ha; for Blackgrass plant response rating (0 to 100 scale): 125 g ai/ha
In short: as §1

[10] = test system: oat, wild (wild oat, Avena fatua); experiment: as above; settings: 10 days, 0 = no effect, 100 = complete control; for Oat, Wild plant response rating (0-100): 31 g ai/ha; for Oat, Wild plant response rating (0 to 100 scale): 125 g ai/ha
In short: as §1

[11] = test system: barnyardgrass (Echinochloa crusgalli); experiment: Test B flooded paddy test, visual plant response rating 0-100; settings: 250 g ai/ha, Flood, applied to paddy water, evaluated after 13 days
In short: (§2)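 Visual evaluation after 13 days. Water-applied treatment, 3 cm flood depth held constant, plants at 2-leaf stage at treatment.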

[12] = test system: sedge, umbrella (small-flower umbrella sedge, Cyperus difformis); experiment: as above; settings: 250 g ai/ha, Flood, applied to paddy water, evaluated after 13 days
In short: as §2

[13] = test system: ducksalad (Heteranthera limosa); experiment: as above; settings: 250 g ai/ha, Flood, applied to paddy water, evaluated after 13 days
In short: as §2

[14] = test system: rice (Oryza sativa); experiment: as above; settings: 250 g ai/ha, Flood, applied to paddy water, evaluated after 13 days
In short: as §2

[15] = test system: wheat (Triticum aestivum); experiment: Test A postemergence application, visual injury rating 0-100; settings: for Wheat plant response rating (0 to 100 scale): Postemergence
In short: as §1

[16] = test system: galium (catchweed bedstraw, Galium aparine); experiment: as above; settings: for Galium plant response rating (0 to 100 scale): Postemergence
In short: as §1

[17] = test system: ragweed (common ragweed, Ambrosia artemisiifolia); experiment: as above; settings: for Ragweed plant response rating (0 to 100 scale): Postemergence
In short: as §1

[18] = test system: soybean (Glycine max); experiment: as above; settings: for Soybean plant response rating (0 to 100 scale): Postemergence
In short: as §1

[19] = test system: horseweed (Erigeron canadensis); experiment: as above; settings: for Horseweed plant response rating (0 to 100 scale): Postemergence
In short: as §1

[20] = test system: ryegrass, Italian (italian ryegrass, Lolium multiflorum); experiment: as above; settings: for Ryegrass, Italian plant response rating (0 to 100 scale): Postemergence
In short: as §1

[21] = test system: barnyardgrass (Echinochloa crus-galli); experiment: as above; settings: for Barnyardgrass plant response rating (0 to 100 scale): Postemergence
In short: as §1

[22] = test system: corn (Zea mays); experiment: as above; settings: for Corn plant response rating (0 to 100 scale): Postemergence
In short: as §1

[23] = test system: kochia (Bassia scoparia); experiment: as above; settings: for Kochia plant response rating (0 to 100 scale): Postemergence
In short: as §1

[24] = test system: palmer (palmer amaranth, palmer pigweed, Amaranthus palmeri); experiment: as above; settings: for Amaranth, Palmer / Pigweed, Palmer plant response rating (0 to 100 scale): Postemergence
In short: as §1

[25] = test system: blackgrass (Alopecurus myosuroides); experiment: as above; settings: for Blackgrass plant response rating (0 to 100 scale): Postemergence
In short: as §1

[26] = test system: oat, wild (wild oat, Avena fatua); experiment: as above; settings: for Oat, Wild plant response rating (0 to 100 scale): Postemergence
In short: as §1

[27] = 31 g ai/ha, postemergence, 10 days, 0 = no effect, 100 = complete control
[28] = 125 g ai/ha, 10 days, 0 is no effect, 100 is complete control
[29] = 31 g ai/ha, greenhouse 10 days, 0 no effect, 100 complete control

## CC1(C(=O)NC2C=CC(C(=O)OC3CCCC3)C2)CN(c2cc(Cl)cc(Cl)c2)C(=O)O1 (stereo not drawn) [Compound 59]
[1]
  Wheat plant response rating (0-100): 30
  Wheat plant response rating (0 to 100 scale): 70
[2]
  Ragweed plant response rating (0-100): 30
  Ragweed plant response rating (0 to 100 scale): 60
[3]
  Soybean plant response rating (0-100): 30
  Soybean plant response rating (0 to 100 scale): 60
[4]
  Ryegrass, Italian plant response rating (0-100): 60
  Ryegrass, Italian plant response rating (0 to 100 scale): 80
[5]
  Barnyardgrass plant response rating (0-100): 60
  Barnyardgrass plant response rating (0 to 100 scale): 100
[6]
  Corn plant response rating (0-100): 0
  Corn plant response rating (0 to 100 scale): 50
[7]
  Kochia plant response rating (0-100): 40
  Kochia plant response rating (0 to 100 scale): 80
[8]
  Amaranth, Palmer plant response rating (0-100): 100
  Amaranth, Palmer plant response rating (0 to 100 scale): 100
[9]
  Blackgrass plant response rating (0-100): 0
  Blackgrass plant response rating (0 to 100 scale): 60
[10]
  Oat, Wild plant response rating (0-100): 10
  Oat, Wild plant response rating (0 to 100 scale): 80
[11]
  Plant response rating, Barnyardgrass (0 to 100 scale, 0 is no effect and 100 is complete control): 90
[12]
  Plant response rating, Sedge, Umbrella (0 to 100 scale, 0 is no effect and 100 is complete control): 98
[13]
  Plant response rating, Ducksalad (0 to 100 scale, 0 is no effect and 100 is complete control): 85
[14]
  Plant response rating, Rice (0 to 100 scale, 0 is no effect and 100 is complete control): 50
[15]; [27]
  Wheat plant response rating (0-100): 90
[15]; [28]
  Wheat plant response rating (0 to 100 scale): 90
[16]; [27]
  Galium plant response rating (0-100): 90
[16]; [28]
  Galium plant response rating (0 to 100 scale): 90
[17]; [27]
  Ragweed plant response rating (0-100): 30
[17]; [28]
  Ragweed plant response rating (0 to 100 scale): 80
[18]; [27]
  Soybean plant response rating (0-100): 90
[18]; [28]
  Soybean plant response rating (0 to 100 scale): 100
[19]; [27]
  Horseweed plant response rating (0-100): 20
[19]; [28]
  Horseweed plant response rating (0 to 100 scale): 70
[20]; [27]
  Ryegrass, Italian plant response rating (0-100): 90
[20]; [28]
  Ryegrass, Italian plant response rating (0 to 100 scale): 90
[21]; [27]
  Barnyardgrass plant response rating (0-100): 90
[21]; [28]
  Barnyardgrass plant response rating (0 to 100 scale): 90
[22]; [27]
  Corn plant response rating (0-100): 90
[22]; [28]
  Corn plant response rating (0 to 100 scale): 100
[23]; [27]
  Kochia plant response rating (0-100): 80
[23]; [28]
  Kochia plant response rating (0 to 100 scale): 90
[24]; [27]
  Amaranth, Palmer plant response rating (0-100): 90
[24]; [28]
  Amaranth, Palmer / Pigweed, Palmer plant response rating (0 to 100 scale): 100
[25]; [27]
  Blackgrass plant response rating (0-100): 100
[25]; [28]
  Blackgrass plant response rating (0 to 100 scale): 100
[26]; [27]
  Oat, Wild plant response rating (0-100): 60
[26]; [28]
  Oat, Wild plant response rating (0 to 100 scale): 90

## CC1(C(=O)NC2CC=C(C(=O)O)C2)CN(c2cc(Cl)cc(Cl)c2)C(=O)O1 (stereo not drawn) [Compound 72]
[1]
  Wheat plant response rating (0-100): 40
  Wheat plant response rating (0 to 100 scale): 80
[2]
  Ragweed plant response rating (0-100): 0
  Ragweed plant response rating (0 to 100 scale): 40
[3]
  Soybean plant response rating (0-100): 0
  Soybean plant response rating (0 to 100 scale): 80
[4]
  Ryegrass, Italian plant response rating (0-100): 40
  Ryegrass, Italian plant response rating (0 to 100 scale): 80
[5]
  Barnyardgrass plant response rating (0-100): 60
  Barnyardgrass plant response rating (0 to 100 scale): 90
[6]
  Corn plant response rating (0-100): 0
  Corn plant response rating (0 to 100 scale): 60
[7]
  Kochia plant response rating (0-100): 80
  Kochia plant response rating (0 to 100 scale): 90
[8]
  Amaranth, Palmer plant response rating (0-100): 90
  Amaranth, Palmer plant response rating (0 to 100 scale): 100
[9]
  Blackgrass plant response rating (0-100): 0
  Blackgrass plant response rating (0 to 100 scale): 30
[10]
  Oat, Wild plant response rating (0-100): 10
  Oat, Wild plant response rating (0 to 100 scale): 40
[11]
  Plant response rating, Barnyardgrass (0 to 100 scale, 0 is no effect and 100 is complete control): 55
[12]
  Plant response rating, Sedge, Umbrella (0 to 100 scale, 0 is no effect and 100 is complete control): 98
[13]
  Plant response rating, Ducksalad (0 to 100 scale, 0 is no effect and 100 is complete control): 75
[14]
  Plant response rating, Rice (0 to 100 scale, 0 is no effect and 100 is complete control): 85
[15]; [29]
  Wheat plant response rating (0 to 100 scale): 80
[15]; [28]
  Wheat plant response rating (0 to 100 scale): 90
[16]; [29]
  Galium plant response rating (0 to 100 scale): 80
[16]; [28]
  Galium plant response rating (0 to 100 scale): 80
[17]; [29]
  Ragweed plant response rating (0 to 100 scale): 50
[17]; [28]
  Ragweed plant response rating (0 to 100 scale): 70
[18]; [29]
  Soybean plant response rating (0 to 100 scale): 80
[18]; [28]
  Soybean plant response rating (0 to 100 scale): 90
[19]; [29]
  Horseweed plant response rating (0 to 100 scale): 70
[19]; [28]
  Horseweed plant response rating (0 to 100 scale): 80
[20]; [29]
  Ryegrass, Italian plant response rating (0 to 100 scale): 70
[20]; [28]
  Ryegrass, Italian plant response rating (0 to 100 scale): 70
[21]; [29]
  Barnyardgrass plant response rating (0 to 100 scale): 90
[21]; [28]
  Barnyardgrass plant response rating (0 to 100 scale): 90
[22]; [29]
  Corn plant response rating (0 to 100 scale): 100
[22]; [28]
  Corn plant response rating (0 to 100 scale): 100
[23]; [29]
  Kochia plant response rating (0 to 100 scale): 80
[23]; [28]
  Kochia plant response rating (0 to 100 scale): 80
[24]; [29]
  Amaranth, Palmer / Pigweed, Palmer plant response rating (0 to 100 scale): 90
[24]; [28]
  Amaranth, Palmer / Pigweed, Palmer plant response rating (0 to 100 scale): 90
[25]; [29]
  Blackgrass plant response rating (0 to 100 scale): 90
[25]; [28]
  Blackgrass plant response rating (0 to 100 scale): 90
[26]; [29]
  Oat, Wild plant response rating (0 to 100 scale): 40
[26]; [28]
  Oat, Wild plant response rating (0 to 100 scale): 60
